# Measured values: US4885245A, “Process for producing L-tryptophan” (Ajinomoto Co., Inc., priority 1984, dated 1989)
# Assays:
# [1] = target: T1, tryptophan synthetase (TS) of transformant AJ 12139 (Corynebacterium glutamicum, UniProt P06561); experiment: TS (TSB) activity of crude enzyme solution of transformant AJ 12139 with added L-tryptophan; type: biochemical, Brevibacterium lactofermentum
# T1 construct: plasmid pAJ 319 (pAJ 1844 vector) carrying trpA and trpB of AJ 12030, in TSA-deficient host No. 21
# Protocol: (§1) A specimen strain was cultured in 20 ml of medium for L-tryptophan production (described hereinafter). From the cultured cells, a lysate was prepared by an ultrasonic wave treatment and centrifuged at 32,000×gfor 30 minutes to obtain the supernatant. The supernatant was used as a crude enzyme solution. Using an enzyme reaction solution (1 ml in total amount) consisting of 100 mM tris hydrochloride buffer (pH 7.8), 0.4 mM indole, 30 mM L-serine, 40 μm pyridoxal-5'-phosphate and 180 mM sodium chloride, TSB activity was measured. The reaction was carried out at 30° C. for 30 minutes, 0.1 ml of 1N NaOH was added, the remaining indole was extracted with toluene, color was then formed by an indole reagent and then the color was measured by a spectrophotometer (at […]).
# [2] = target: T2, tryptophan synthetase (TS) of wild strain AJ 12036 (Corynebacterium glutamicum, UniProt P06561); experiment: TS (TSB) activity of crude enzyme solution of wild strain AJ 12036 with added L-tryptophan; type: biochemical; conditions: strain AJ 12036 crude enzyme, 20 mM L-Tryptophan added
# T2 construct: that of the wild strain (AJ 12036); endogenous in cells; host or cells: wild strain AJ 12036 (FERM-P7559, FERM-BP 734), crude sonicate supernatant
# T2 sequence (P06561 1-417): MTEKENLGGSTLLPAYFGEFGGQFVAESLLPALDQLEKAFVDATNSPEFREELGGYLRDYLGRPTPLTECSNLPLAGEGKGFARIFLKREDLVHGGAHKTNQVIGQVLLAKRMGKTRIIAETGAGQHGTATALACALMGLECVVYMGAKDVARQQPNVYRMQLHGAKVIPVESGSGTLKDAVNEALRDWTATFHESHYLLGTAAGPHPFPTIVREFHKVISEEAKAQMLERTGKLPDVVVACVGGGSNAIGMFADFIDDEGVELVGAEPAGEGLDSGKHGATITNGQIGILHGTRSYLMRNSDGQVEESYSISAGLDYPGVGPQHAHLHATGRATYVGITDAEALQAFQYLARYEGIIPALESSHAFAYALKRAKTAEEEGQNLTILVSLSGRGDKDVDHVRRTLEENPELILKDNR
# T2 sequence (P06562 1-280 partner): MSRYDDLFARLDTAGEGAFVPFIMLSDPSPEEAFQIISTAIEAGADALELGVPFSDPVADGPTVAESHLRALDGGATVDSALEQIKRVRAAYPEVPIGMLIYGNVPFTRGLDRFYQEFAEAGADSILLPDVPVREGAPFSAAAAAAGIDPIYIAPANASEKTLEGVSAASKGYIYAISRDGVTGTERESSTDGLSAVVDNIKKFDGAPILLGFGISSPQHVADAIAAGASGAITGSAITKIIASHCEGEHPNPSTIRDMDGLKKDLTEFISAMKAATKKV
# Protocol: as §1
smiles,measurement,setting,value
"N[C@@H](Cc1c[nH]c2ccccc12)C(=O)O [L-Tryptophan, L-tryptophan]",inhibition of TS activity of the transformant (in words),[1]; in the presence of 20 mM L-tryptophan,inhibited only slightly
same,TS activity (amount of decreased indole in mole/min/mg amount of protein),"[1]; strain AJ 12139 crude enzyme, 20 mM L-Tryptophan added, 30° C., 30 minutes, 0 mM control 81.0",66.4 mole/min/mg amount of protein
same,"TS activity, relative value in parentheses (0 mM = 100)","[1]; strain AJ 12139 crude enzyme, 20 mM L-Tryptophan added, 30 min",82
same,activity at 20000 µM,"[2]; 0.5 h, read-out: TS activity, relative value in parentheses (0 mM = 100)",65%
same,TS activity (amount of decreased indole in mole/min/mg amount of protein),"[2]; 30° C., 30 minutes, 0 mM control 7.1",4.6 mole/min/mg amount of protein
